Like-named read-outs stand apart in the source and are kept apart here.
Tests used:
[1] = molecular target: T1, CYP2C19 (Homo sapiens, UniProt P33261); assay: Reversible CYP2C19 inhibition, cocktail assay (omeprazole 5-hydroxylase) in human liver microsomes; format: biochemical; settings: human liver microsomes 0.1 mg/mL, omeprazole probe, n = 3
T1 construct: tissue Corning Life Sciences; host or cells: pooled human liver microsomes, 150 donors
Procedure: (§1) The inhibitory effects of SPN on CYP1A2, CYP2A6, CYP2B6, CYP2C8, CYP2C9, CYP2C19, CYP2D6, CYP2E1, and CYP3A4 were evaluated in pooled human liver microsomes through the use of specific CYP probe substrates (cocktail assay), as previously described with a slight modification. Concentrations of each CYP probe in Table 1 were used close to their reported Km values.
(§2) Briefly, a 90-µL incubation mixture, including pooled human liver microsomes (final concentration 0.1 mg/mL), 50 mM phosphate buffer (pH 7.4), each CYP-probe substrate cocktail set, and SPN (0–50 μM), was pre-incubated for 5 min at 37 °C. SPN was dissolved in methanol and spiked into the incubation mixture to a final concentration of 0.5% methanol. […]
(§3) The IC50 values were calculated via nonlinear least-squares regression analysis from logarithmic plots of inhibitor concentration versus percentage of activity remaining after inhibition, using SigmaPlot (ver. 14.0; Systat Software Inc, Chicago, IL, USA). The Ki values were determined from the equations for a single substrate single inhibitor model and the software available in the SigmaPlot Enzyme Kinetics module. Competitive, non-competitive, uncompetitive, or mixed inhibition models were evaluated and ranked according to the best fit based on Akaike Information Criterion (AIC) values. […]

[2] = molecular target: T2, CYP2C9 (Homo sapiens, UniProt P11712); assay: Determination of Ki and inhibition type on CYP2C9 activity in human liver microsomes; format: biochemical; settings: for Ki: human liver microsomes, n = 3
T2 construct: tissue Corning Life Sciences; host or cells: pooled human liver microsomes, 150 donors
Procedure: Based on the IC50 values, the Ki values of SPN on CYP2C9 activity were determined. […] Other procedures were similar to those of the reversible inhibition studies. All incubations were performed in triplicate, and the data are shown as the mean ± standard deviation.
The IC50 values were calculated via nonlinear least-squares regression analysis from logarithmic plots of inhibitor concentration versus percentage of activity remaining after inhibition, using SigmaPlot (ver. 14.0; Systat Software Inc, Chicago, IL, USA). The Ki values were determined from the equations for a single substrate single inhibitor model and the software available in the SigmaPlot Enzyme Kinetics module. Competitive, non-competitive, uncompetitive, or mixed inhibition models were evaluated and ranked according to the best fit based on Akaike Information Criterion (AIC) values. For visual inspection, the data were presented as Dixon plots.

[3] = molecular target: T3, CYP1A2 (Homo sapiens, UniProt P05177); assay: Reversible CYP1A2 inhibition, cocktail assay (phenacetin O-deethylase) in human liver microsomes; format: biochemical
T3 construct: tissue Corning Life Sciences; host or cells: pooled human liver microsomes, 150 donors
T3 sequence (P05177 1-516): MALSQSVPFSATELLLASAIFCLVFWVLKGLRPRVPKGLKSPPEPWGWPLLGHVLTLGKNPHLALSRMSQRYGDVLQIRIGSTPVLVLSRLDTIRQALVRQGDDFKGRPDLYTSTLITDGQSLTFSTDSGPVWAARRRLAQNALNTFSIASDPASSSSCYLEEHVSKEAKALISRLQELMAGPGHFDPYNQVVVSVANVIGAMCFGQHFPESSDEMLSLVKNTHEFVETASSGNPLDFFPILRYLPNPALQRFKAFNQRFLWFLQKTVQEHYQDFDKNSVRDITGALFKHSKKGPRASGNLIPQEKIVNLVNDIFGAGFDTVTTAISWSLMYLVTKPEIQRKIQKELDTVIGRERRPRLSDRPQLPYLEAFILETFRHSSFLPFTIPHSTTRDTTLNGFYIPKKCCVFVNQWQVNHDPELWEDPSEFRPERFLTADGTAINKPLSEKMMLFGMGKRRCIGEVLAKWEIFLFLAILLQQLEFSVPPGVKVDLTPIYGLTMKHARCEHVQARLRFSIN
Procedure: as §1, §2, §3

[4] = molecular target: T4, CYP3A4 (Homo sapiens, UniProt P08684); assay: Reversible CYP3A4 inhibition, cocktail assay (midazolam 1′-hydroxylase) in human liver microsomes; format: biochemical; settings: midazolam probe
T4 construct: tissue Corning Life Sciences; host or cells: pooled human liver microsomes, 150 donors
Procedure: as §1, §2, §3

[5] = molecular target: T5, CYP2D6 (Homo sapiens, UniProt P10635); assay: Reversible CYP2D6 inhibition, cocktail assay (dextromethorphan O-demethylase) in human liver microsomes; format: biochemical
T5 construct: tissue Corning Life Sciences; host or cells: pooled human liver microsomes, 150 donors
Procedure: as §1, §2, §3

[6] = molecular target: T2, CYP2C9; assay: Reversible CYP2C9 inhibition, cocktail assay (tolbutamide 4-hydroxylase) in human liver microsomes; format: biochemical; settings: human liver microsomes 0.1 mg/mL, tolbutamide probe, n = 3
Procedure: as §1, §2, §3

[7] = test system: CYP1A2, CYP2A6, CYP2B6, CYP2C8, CYP2C9, CYP2C19, CYP2D6, CYP2E1, and CYP3A4; assay: Time-dependent inactivation (IC50 shift) of the nine CYP isoforms in human liver microsomes; format: biochemical; settings: 30 min pre-incubation with human liver microsomes in the presence of NADPH
Procedure: Pooled human liver microsomes (1 mg/mL) were incubated with SPN (0−50 µM) for 30 min at 37 °C in the absence or presence of an NADPH-generating system (i.e., the “inactivation incubation”). After inactivation incubation, aliquots (10 μL) were transferred into fresh incubation tubes (final volume 100 μL) containing an NADPH-generating system and each P450-selective substrate cocktail set. The reaction mixtures were incubated for 15 min at 37 °C in a shaking water bath. After incubation, the reactions were stopped by adding 200 µL of ice-cold acetonitrile containing 2 µM chlorpropamide, as an internal standard. The incubation mixtures were centrifuged (16,000× g, 15 min) and 5 μL of the supernatant was injected into the LC-MS/MS system. All incubations were performed in triplicate, and the data are shown as the mean ± standard deviation.

[8] = design: method as in PMID 26068519; settings: rats, oral 12.9 mg/kg SPN; cited from earlier work
[9] = molecular target: T4, CYP3A4; assay: Inhibition of CYP3A4-catalyzed testosterone 6β-hydroxylation; format: biochemical; settings: data not shown
Text: The reversible inhibition of SPN-mediated CYP3A4 activity was less consistent with the published literature. […] They only focused on the in vitro inhibitory potentials of several flavonoids against CYP3A4 activity. To the best of our knowledge, to date, bufalin has not been used as the in vitro probe substrate for the CYP3A4 activity, and the reference material of 5′-hydroxybufalin is not commercially available. Because of the presence of several binding regions within the CYP3A4 active site, multiple probe substrates are often used for in vitro CYP3A4-mediated drug–drug interaction studies, including midazolam, nifedipine, and testosterone. […] Altogether, the in vitro CYP3A4 inhibition by SPN seemed to be substrate-specific.

[10] = at the highest tested concentration (50 μM)

T4 sequence (P08684 whole entry): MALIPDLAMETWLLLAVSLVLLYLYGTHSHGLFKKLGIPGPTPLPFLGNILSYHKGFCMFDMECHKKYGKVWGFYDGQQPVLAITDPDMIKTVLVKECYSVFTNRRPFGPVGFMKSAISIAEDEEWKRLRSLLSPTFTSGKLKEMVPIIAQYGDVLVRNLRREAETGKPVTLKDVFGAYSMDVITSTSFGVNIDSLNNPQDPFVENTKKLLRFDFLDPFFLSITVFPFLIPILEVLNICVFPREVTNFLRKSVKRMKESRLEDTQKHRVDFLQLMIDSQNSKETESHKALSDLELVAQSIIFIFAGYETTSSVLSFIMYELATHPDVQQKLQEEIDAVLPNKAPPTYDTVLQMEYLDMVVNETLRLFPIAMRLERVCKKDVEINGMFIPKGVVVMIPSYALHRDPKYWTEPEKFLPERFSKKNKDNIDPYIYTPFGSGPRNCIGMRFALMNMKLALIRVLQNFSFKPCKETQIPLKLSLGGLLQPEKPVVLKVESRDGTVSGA
T2 sequence (P11712 whole entry): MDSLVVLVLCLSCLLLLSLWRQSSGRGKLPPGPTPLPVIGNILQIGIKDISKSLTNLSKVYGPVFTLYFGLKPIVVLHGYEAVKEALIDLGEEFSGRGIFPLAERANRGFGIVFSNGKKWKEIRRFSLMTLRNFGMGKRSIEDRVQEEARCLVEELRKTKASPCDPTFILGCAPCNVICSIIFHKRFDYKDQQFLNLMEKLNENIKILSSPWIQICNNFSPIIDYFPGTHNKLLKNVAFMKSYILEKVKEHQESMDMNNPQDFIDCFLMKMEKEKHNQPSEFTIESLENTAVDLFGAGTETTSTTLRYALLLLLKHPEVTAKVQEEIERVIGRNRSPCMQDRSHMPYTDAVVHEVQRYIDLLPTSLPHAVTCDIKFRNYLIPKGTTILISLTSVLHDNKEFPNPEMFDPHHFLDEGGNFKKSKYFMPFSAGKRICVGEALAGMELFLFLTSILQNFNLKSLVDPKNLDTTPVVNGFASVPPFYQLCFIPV
T5 sequence (P10635 whole entry): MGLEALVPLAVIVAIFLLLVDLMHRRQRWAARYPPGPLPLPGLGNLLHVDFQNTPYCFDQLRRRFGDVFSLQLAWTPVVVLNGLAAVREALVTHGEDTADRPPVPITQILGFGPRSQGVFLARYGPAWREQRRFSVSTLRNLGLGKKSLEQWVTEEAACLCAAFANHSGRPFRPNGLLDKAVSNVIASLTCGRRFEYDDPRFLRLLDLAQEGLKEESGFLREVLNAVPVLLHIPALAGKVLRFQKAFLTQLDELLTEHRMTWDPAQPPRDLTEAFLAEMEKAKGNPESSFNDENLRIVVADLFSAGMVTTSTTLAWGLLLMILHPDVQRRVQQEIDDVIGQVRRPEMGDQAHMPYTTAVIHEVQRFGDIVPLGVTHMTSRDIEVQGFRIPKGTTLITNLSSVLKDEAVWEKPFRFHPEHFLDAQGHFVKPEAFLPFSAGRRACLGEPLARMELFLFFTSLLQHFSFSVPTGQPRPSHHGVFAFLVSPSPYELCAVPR
T1 sequence (P33261 whole entry): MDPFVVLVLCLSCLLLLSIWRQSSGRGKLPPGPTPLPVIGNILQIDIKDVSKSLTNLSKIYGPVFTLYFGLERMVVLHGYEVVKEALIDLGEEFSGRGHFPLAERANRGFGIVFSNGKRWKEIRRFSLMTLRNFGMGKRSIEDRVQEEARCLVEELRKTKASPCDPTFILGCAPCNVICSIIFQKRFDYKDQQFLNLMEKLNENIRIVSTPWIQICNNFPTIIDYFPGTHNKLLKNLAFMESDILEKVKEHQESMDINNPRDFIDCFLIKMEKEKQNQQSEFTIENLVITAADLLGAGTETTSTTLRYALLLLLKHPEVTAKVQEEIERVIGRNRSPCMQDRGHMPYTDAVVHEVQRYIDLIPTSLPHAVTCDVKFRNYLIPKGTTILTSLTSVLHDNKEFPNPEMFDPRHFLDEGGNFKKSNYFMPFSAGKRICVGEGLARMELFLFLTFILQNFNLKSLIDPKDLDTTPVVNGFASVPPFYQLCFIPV

IC50 [1]: 16.8 ± 3.21 µM
Ki ([2]; Ki values, CYP2C9 probe diclofenac, diclofenac 2, 5, and 10 µM): 0.587 ± 0.047 µM
Mode of inhibition, CYP2C9 probe diclofenac ([2]; best fit based on AIC values): Competitive
Mode of inhibition, CYP2C9 probe tolbutamide ([2]; best fit based on AIC values): Competitive
Ki ([2]; tolbutamide 50, 100, and 150 µM, read-out: Ki values, CYP2C9 probe tolbutamide): 0.503 ± 0.0383 µM
residual enzyme activity, CYP1A2 [3, 10]: greater than 80%
IC50 ([3]; human liver microsomes 0.1 mg/mL, cocktail assay, phenacetin probe, n = 3): > 50 µM
residual enzyme activity, CYP3A4 [4, 10]: 53.3 ± 4.00%
IC50 ([4]; human liver microsomes 0.1 mg/mL, cocktail assay, n = 3): > 50 µM
residual enzyme activity, CYP2D6 [5, 10]: 53.9 ± 3.53%
IC50 ([5]; human liver microsomes 0.1 mg/mL, cocktail assay, dextromethorphan probe, n = 3): > 50 µM
IC50 [6]: 0.966 ± 0.149 µM
shift in IC50 after pre-incubation (time-dependent inactivation of the nine CYPs) [7]: no obvious shift in IC50
IC50 [9]: 31.5 ± 4.79 µM
Compound: CC(C)=CCc1cc([C@@H]2CC(=O)c3ccc(O)c(CC=C(C)C)c3O2)cc(CC=C(C)C)c1O [SPN, (‒)-Sophoranone]
maximum plasma concentration (Cmax) [8]: approximately 13.1 ng/mL

Reference: PMC7238241, “Lack of Correlation between In Vitro and In Vivo Studies on the Inhibitory Effects of (‒)-Sophoranone on CYP2C9 Is Attributable to Low Oral Absorption and Extensive Plasma Protein Binding of (‒)-Sophoranone” (Pharmaceutics, 2020)
